Among the data in ChEMBL document CHEMBL2169795, “Macrocyclic peptoid-Peptide hybrids as inhibitors of class I histone deacetylases” (ACS Med Chem Lett, 2012) are IC50, GI50 and inhibition values, retold here.

Activity calls are given as the source filed them. The rule behind the calls is not given here.

One experiment addresses Histone deacetylase. The experiment can be described thus: Inhibition of HDAC in human HeLa cell extracts by fluorimetric assay. In kind it is protein assay.
The next experiment has as its target Histone deacetylase 1 (Homo sapiens, UniProt Q13547). Briefly: Inhibition of human recombinant HDAC1 using Ac-Lys(Ac)-7-amino-4-methylcoumarin as substrate after 30 mins by trypsin-coupled fluorogenic assay.
Experiment [1] addresses T1, Protein deacetylase HDAC6 (Homo sapiens, UniProt Q9UBN7).
T1 sequence (Q9UBN7 whole entry): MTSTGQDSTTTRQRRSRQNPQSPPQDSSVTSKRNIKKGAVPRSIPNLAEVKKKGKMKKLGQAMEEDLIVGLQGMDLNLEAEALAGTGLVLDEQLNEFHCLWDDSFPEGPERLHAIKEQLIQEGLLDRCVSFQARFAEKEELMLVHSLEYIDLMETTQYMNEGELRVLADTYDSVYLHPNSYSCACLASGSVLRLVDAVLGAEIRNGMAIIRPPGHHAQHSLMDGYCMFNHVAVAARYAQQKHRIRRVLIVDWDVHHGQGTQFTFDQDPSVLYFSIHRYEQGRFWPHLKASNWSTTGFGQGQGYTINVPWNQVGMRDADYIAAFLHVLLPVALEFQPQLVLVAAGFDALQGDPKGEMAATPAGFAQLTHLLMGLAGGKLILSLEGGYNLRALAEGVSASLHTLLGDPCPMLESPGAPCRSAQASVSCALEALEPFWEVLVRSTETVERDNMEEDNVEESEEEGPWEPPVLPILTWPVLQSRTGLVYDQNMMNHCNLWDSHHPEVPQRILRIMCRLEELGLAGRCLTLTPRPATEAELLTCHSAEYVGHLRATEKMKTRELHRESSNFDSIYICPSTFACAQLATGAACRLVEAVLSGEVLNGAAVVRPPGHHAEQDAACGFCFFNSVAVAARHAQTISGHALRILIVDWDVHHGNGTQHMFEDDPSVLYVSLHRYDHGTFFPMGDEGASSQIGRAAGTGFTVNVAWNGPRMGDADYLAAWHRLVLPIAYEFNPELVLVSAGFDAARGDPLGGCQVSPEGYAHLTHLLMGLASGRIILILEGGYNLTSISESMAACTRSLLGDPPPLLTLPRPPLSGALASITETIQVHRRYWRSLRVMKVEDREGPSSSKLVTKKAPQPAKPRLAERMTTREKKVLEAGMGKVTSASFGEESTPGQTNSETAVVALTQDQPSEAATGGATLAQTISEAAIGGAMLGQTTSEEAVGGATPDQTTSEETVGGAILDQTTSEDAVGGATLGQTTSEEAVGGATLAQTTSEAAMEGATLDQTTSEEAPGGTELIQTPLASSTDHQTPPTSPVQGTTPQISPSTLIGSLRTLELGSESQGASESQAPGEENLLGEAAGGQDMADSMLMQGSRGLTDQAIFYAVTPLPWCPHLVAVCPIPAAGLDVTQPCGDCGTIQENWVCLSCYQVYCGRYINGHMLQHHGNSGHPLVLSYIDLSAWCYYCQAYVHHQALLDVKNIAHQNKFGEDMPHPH
Briefly: Inhibition of human recombinant HDAC6 using Ac-Lys(Ac)-7-amino-4-methylcoumarin as substrate after 30 mins by trypsin-coupled fluorogenic assay.

The subject of the next experiment is MCF7. The experiment can be described thus: Cytotoxicity against human MCF7 cells after 72 hrs by XTT assay. The note with it: MCF7, 72 h. In kind it is functional.
Experiment [2] concerns the target Histone deacetylase 3/Nuclear receptor corepressor 2 (HDAC3/NCoR2) (Homo sapiens, UniProt O15379). Briefly: Inhibition of human recombinant HDAC3/NCoR2 using Ac-Lys(Ac)-7-amino-4-methylcoumarin as substrate after 30 mins by trypsin-coupled fluorogenic assay. In kind it is protein-complex assay.
The test system of another experiment is HeLa. The experiment can be described thus: Cytotoxicity against human HeLa cells after 72 hrs by XTT assay. Type of experiment: functional. A general note: Tetrazolium dyes change colour on reduction, which living cells bring about.
The target in another experiment is Histone deacetylase 2 (Homo sapiens, UniProt Q92769). Briefly: Inhibition of human recombinant HDAC2 using Ac-Lys(Ac)-7-amino-4-methylcoumarin as substrate after 30 mins by trypsin-coupled fluorogenic assay.
The next experiment has as its system HCT-116. Briefly: Cytotoxicity against human HCT116 cells after 72 hrs by XTT assay. In kind it is functional. The note with it: HCT-116, 72 h.
The next experiment relates to K562. Briefly: Cytotoxicity against human K562 cells after 72 hrs by XTT assay. In kind it is functional. The conditions noted are these: K562, 72 h.
Experiment [3] in a line: Cytotoxicity against human KYO1 cells after 72 hrs by XTT assay. Type of experiment: functional. The conditions noted are these: KYO1, 72 h.
In another experiment the target is T2, Histone deacetylase 8 (Homo sapiens, UniProt Q9BY41).
T2 sequence (Q9BY41 whole entry): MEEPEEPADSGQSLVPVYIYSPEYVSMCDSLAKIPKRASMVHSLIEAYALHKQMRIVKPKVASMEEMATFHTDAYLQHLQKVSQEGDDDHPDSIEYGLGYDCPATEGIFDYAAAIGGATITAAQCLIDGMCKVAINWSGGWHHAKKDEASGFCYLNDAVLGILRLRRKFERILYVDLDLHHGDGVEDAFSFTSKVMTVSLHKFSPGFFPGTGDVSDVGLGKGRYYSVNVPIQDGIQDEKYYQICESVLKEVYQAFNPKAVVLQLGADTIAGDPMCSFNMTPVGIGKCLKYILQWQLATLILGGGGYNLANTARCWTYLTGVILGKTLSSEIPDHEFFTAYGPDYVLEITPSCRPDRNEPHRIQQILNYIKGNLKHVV
The experiment can be described thus: Inhibition of human recombinant HDAC8 using Arg-His-Lys(Ac)-Lys(Ac)-AMC as substrate after 30 mins by trypsin-coupled fluorogenic assay.

The target of experiment [4] is Histone deacetylase (Homo sapiens) (UniProt Q13547+O15379+Q9UBN7+Q92769+Q9UQL6+Q8WUI4+Q9BY41+Q96DB2+P56524+Q9UKV0+Q969S8). The conditions noted are these: Jurkat, 2 to 20 uM.
Description: Inhibition of HDAC in human Jurkat cells assessed as increase of acetylated-histone H3 level at 2 to 20 uM after 24 hrs by Western blot analysis
The target of experiment [5] is T3, Protein deacetylase HDAC6 (Homo sapiens) (UniProt Q9UBN7).
T3 sequence (whole entry): T1 sequence (Q9UBN7 whole entry)
The conditions noted are these: Jurkat, 2 to 20 uM.
Description: Inhibition of HDAC6 in human Jurkat cells assessed as increase of acetylated alpha-tubulin level at 2 to 20 uM after 24 hrs by Western blot analysis

Histone deacetylase 3/Nuclear receptor corepressor 2 (HDAC3/NCoR2), sequence (O15379 whole entry): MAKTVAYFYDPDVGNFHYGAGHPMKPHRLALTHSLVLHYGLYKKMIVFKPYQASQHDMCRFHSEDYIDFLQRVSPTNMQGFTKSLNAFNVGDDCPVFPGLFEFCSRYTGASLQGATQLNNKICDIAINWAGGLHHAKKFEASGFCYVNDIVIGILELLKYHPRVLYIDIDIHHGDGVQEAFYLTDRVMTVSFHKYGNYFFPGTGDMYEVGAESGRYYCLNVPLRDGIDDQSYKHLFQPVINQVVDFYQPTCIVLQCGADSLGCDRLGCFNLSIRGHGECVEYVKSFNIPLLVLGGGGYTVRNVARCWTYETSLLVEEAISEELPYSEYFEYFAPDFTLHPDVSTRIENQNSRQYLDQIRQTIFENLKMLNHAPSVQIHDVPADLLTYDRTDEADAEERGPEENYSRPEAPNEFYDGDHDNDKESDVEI
Histone deacetylase 3/Nuclear receptor corepressor 2 (HDAC3/NCoR2), sequence (Q9Y618 whole entry, further chain): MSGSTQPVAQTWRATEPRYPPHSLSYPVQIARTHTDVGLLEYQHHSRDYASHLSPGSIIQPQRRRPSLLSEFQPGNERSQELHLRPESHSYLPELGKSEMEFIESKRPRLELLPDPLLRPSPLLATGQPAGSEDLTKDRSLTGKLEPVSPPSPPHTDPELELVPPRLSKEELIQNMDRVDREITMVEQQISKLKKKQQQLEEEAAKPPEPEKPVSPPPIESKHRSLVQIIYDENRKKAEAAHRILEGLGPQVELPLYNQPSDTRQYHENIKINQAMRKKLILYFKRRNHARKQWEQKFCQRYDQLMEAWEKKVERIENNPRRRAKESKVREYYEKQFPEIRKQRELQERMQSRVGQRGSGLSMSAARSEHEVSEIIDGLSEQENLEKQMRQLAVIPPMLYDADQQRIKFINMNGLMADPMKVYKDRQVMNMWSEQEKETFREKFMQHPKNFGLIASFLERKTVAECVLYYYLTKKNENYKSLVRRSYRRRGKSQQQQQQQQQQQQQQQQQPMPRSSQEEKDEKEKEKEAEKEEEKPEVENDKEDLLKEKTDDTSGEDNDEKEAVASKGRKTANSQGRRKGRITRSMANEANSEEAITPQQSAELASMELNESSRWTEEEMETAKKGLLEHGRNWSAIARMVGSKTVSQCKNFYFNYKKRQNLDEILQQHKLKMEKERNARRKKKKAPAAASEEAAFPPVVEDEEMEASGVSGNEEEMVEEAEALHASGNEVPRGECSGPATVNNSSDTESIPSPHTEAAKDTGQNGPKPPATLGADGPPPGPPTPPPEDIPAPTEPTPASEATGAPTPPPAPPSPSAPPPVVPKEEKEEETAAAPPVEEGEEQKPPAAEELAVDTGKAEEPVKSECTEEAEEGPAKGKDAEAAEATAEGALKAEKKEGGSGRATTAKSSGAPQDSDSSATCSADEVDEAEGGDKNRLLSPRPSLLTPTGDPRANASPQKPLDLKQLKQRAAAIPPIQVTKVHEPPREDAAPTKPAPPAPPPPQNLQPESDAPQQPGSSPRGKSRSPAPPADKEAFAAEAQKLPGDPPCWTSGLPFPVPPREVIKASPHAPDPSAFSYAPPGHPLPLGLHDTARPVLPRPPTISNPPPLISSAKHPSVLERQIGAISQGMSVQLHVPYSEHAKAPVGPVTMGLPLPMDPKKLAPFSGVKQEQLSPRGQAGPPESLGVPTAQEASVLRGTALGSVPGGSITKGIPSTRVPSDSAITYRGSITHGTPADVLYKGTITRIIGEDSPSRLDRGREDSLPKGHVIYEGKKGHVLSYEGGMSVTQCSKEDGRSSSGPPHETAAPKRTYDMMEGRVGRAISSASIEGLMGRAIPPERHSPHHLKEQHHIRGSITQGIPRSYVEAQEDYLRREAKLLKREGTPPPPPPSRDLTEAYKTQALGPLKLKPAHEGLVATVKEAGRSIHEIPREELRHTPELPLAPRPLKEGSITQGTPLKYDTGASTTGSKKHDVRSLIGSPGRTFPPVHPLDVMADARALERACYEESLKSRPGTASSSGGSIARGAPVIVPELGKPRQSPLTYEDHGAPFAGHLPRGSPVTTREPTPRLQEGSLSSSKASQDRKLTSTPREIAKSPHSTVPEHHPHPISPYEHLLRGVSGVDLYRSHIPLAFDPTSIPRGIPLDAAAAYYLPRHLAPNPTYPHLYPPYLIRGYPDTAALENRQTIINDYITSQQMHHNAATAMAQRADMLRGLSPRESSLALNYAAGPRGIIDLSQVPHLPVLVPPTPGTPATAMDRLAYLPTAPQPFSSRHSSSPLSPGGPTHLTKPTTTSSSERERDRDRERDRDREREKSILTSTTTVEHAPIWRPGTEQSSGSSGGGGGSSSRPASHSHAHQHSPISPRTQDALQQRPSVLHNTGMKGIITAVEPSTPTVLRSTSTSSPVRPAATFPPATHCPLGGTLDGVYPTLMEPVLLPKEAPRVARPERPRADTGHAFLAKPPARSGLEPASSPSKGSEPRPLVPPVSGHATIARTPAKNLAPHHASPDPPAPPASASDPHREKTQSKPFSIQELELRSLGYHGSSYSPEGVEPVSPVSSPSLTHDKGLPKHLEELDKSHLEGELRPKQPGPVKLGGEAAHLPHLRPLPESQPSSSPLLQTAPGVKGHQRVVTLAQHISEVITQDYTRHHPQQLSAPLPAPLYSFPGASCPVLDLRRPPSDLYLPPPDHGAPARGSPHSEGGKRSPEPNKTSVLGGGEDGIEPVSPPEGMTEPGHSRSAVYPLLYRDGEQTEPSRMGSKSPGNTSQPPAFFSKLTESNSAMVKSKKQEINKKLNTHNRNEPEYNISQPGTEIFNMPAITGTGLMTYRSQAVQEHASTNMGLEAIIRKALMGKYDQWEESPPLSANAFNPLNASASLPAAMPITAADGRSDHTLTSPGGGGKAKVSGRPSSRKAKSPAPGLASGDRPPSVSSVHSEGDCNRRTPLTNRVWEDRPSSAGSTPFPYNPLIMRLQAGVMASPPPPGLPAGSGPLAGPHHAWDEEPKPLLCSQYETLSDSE
Histone deacetylase 2, sequence (Q92769 whole entry): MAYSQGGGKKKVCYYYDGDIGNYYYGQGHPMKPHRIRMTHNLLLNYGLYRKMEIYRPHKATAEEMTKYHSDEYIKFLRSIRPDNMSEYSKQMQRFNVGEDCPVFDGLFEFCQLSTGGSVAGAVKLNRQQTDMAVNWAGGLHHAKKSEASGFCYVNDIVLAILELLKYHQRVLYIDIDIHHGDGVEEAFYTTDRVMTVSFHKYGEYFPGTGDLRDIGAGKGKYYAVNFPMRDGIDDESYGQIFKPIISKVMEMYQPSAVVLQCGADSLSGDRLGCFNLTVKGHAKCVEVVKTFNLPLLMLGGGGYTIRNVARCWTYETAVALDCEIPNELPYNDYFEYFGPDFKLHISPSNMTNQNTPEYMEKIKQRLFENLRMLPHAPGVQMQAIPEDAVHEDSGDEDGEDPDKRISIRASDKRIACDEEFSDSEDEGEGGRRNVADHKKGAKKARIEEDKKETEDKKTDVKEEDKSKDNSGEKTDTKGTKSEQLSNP
Histone deacetylase 1, sequence (Q13547 whole entry): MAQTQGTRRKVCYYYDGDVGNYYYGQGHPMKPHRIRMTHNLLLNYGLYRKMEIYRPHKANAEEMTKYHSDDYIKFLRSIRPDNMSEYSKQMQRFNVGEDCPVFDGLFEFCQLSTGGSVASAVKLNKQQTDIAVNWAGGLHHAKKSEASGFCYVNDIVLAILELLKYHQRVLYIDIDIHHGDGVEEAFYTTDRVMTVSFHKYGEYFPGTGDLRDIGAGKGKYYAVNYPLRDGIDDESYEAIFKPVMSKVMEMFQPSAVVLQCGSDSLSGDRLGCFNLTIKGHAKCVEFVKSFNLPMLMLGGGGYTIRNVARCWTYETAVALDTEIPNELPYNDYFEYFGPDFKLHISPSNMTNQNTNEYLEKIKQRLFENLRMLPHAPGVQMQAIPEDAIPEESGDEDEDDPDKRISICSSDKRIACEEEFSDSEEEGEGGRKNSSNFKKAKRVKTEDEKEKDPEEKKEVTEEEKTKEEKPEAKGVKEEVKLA

The term IC50 denotes the point on the concentration scale where inhibition reaches its midpoint. On Histone deacetylase, `CCC(=O)CCCCC[C@@H]1NC(=O)[C@H](C)N(C)C(=O)CCN(CC(C)C)C(=O)CN(Cc2ccccc2)C1=O` displayed a half-maximal inhibitory concentration (IC50) of over 100 µM.

Usually GI50 stands for the concentration giving 50% growth inhibition. Read a high GI50 as lower sensitivity of the cells. Take `CCC(=O)CCCCC[C@@H]1NC(=O)[C@H](CCCNC(=N)N)NC(=O)CCN(CC=C(C)C)C(=O)CN(CCc2c[nH]c3ccccc23)C1=O`: the IC50 against Histone deacetylase was 0.25 µM; at Histone deacetylase 1, 0.7 µM; in [1], over 10 µM; in experiment [2], 0.27 µM; at Histone deacetylase 2, 1.2 µM. The GI50 in the experiment with MCF7, with HeLa and in the experiment with HCT-116 was over 50 µM each time.

The compound `CCC(=O)CCCCCN1CC(=O)N(Cc2cccc3ccccc23)CC(=O)N(CC(C)C)CCC(=O)N[C@@H](C)C1=O` displayed an IC50 against Histone deacetylase of over 10 µM.

`CCC(=O)CCCCC[C@@H]1NC(=O)[C@H](C)N(C)C(=O)CCN(CC(C)C)C(=O)CN(Cc2cccc3ccccc23)C1=O` returned an IC50 against Histone deacetylase of 18 µM.

Consider `CCC(=O)CCCCC[C@@H]1NC(=O)[C@H]2CCCCN2C(=O)[C@H]([C@@H](C)CC)NC(=O)[C@H](Cc2cn(OC)c3ccccc23)NC1=O` [APICIDIN], for which the GI50 in the experiment with MCF7 came out at 5 µM; in the experiment on HeLa, 2 µM; in the experiment on K562 it was 1.5 µM; in the experiment on HCT-116, 1 µM; in experiment [3], 2.7 µM.

For `CCC(=O)CCCCC[C@@H]1NC(=O)[C@H](C)N(C)C(=O)C[C@H](CC(C)C)NC(=O)[C@H](Cc2c[nH]c3ccccc23)NC1=O`, the IC50 in [1] is over 10 µM; at Histone deacetylase 2, 0.07 µM; at Histone deacetylase 8 it was 2.2 µM. Further, the concentration for 50% growth inhibition (GI50) in the experiment with MCF7 was found to be 18 µM; with HeLa it was 4 µM; with K562 it was 7 µM; in experiment [3], 7.5 µM.

For `CCC(=O)CCCCC[C@@H]1NC(=O)[C@H](CCCCNC(C)=O)NC(=O)CCN(CC(C)C)C(=O)CN(CCc2c[nH]c3ccccc23)C1=O`, the half-inhibitory concentration (IC50) is 0.21 µM at Histone deacetylase; 0.2 µM at Histone deacetylase 1; over 10 µM in experiment [1]; 0.32 µM in experiment [2]; 0.37 µM at Histone deacetylase 2. In addition, the concentration for 50% growth inhibition (GI50) was over 50 µM in the experiment on MCF7; 38 µM with HeLa; 1.5 µM in the experiment on K562; 50 µM in the experiment on HCT-116; 10 µM in [3].

On Histone deacetylase, `CCC(=O)CCCCC[C@@H]1NC(=O)[C@H](C)N(C)C(=O)CCN(CC(C)C)C(=O)[C@H](Cc2c[nH]c3ccccc23)NC1=O` registered an IC50 of over 10 µM.

For `CCC(=O)CCCCC[C@@H]1NC(=O)[C@H](C)N(C)C(=O)CCN(CC(C)C)C(=O)CN(CCc2c[nH]c3ccccc23)C1=O`, the half-inhibitory concentration (IC50) at Histone deacetylase is 1 µM; on Histone deacetylase 1, 0.54 µM; in experiment [1] it was over 10 µM; in [2] it was 0.65 µM; at Histone deacetylase 2, 2 µM. Further, the GI50 with MCF7 is over 50 µM; in the experiment on HeLa, 30 µM; with K562 it was 15 µM; in the experiment with HCT-116, 28 µM; in [3] it was 18 µM.

As for `CCC(=O)CCCCC[C@@H]1NC(=O)[C@H](C)N(C)C(=O)CCN(CC(C)C)C(=O)CN(CC2CCCCC2)C1=O`, the IC50 against Histone deacetylase was over 100 µM.

The compound `CCC(=O)CCCCC[C@@H]1NC(=O)[C@H](C)N(C)C(=O)CCN(CC(C)C)C(=O)CN(CCc2ccccc2)C1=O` registered a half-inhibitory concentration (IC50) at Histone deacetylase of over 100 µM.

On to `CCC(=O)CCCCCN1CC(=O)N(CCc2c[nH]c3ccccc23)CC(=O)N(CC(C)C)CCC(=O)N(C)[C@@H](C)C1=O`, for which the IC50 against Histone deacetylase was over 10 µM.

With `CCC(=O)CCCCC[C@@H]1NC(=O)[C@H](CCCNC(=N)N)NC(=O)CCN(CC(C)C)C(=O)CN(CCc2c[nH]c3ccccc23)C1=O`, the half-maximal inhibitory concentration (IC50) at Histone deacetylase is 0.06 µM; at Histone deacetylase 1, 0.18 µM; in [1], over 10 µM; in experiment [2] it was 0.1 µM; at Histone deacetylase 2 it was 0.3 µM; on Histone deacetylase 8, 0.75 µM. Moreover, the GI50 (with MCF7; in the experiment with HeLa; in the experiment with K562; with HCT-116; in experiment [3]) was over 50 µM throughout. In addition, the inhibition result in experiment [4] is “Active”. In experiment [5], the inhibition entry is “inactive”.

`CCC(=O)CCCCC[C@@H]1NC(=O)[C@H](C)N(C)C(=O)C[C@H](CC(C)C)NC(=O)CN(CCc2c[nH]c3ccccc23)C1=O`: the IC50 against Histone deacetylase was over 10 µM.

With `CCC(=O)CCCCC[C@@H]1NC(=O)[C@H](C)N(C)C(=O)CCN(CC(C)C)C(=O)CN(Cc2ccc(C)cc2)C1=O`, the half-inhibitory concentration (IC50) against Histone deacetylase is over 100 µM.
